Results taken from ChEMBL document CHEMBL5154899, “Spiropyrimidinetrione DNA Gyrase Inhibitors with Potent and Selective Antituberculosis Activity” (J Med Chem, 2022).
Values after ≈ are worked out from the molar mass of the structure shown.

Tests used:
[1] = target: DNA gyrase subunit A/DNA gyrase subunit B (Mycobacterium tuberculosis (strain ATCC 25618 / H37Rv), UniProt P9WG45+P9WG47); test: Inhibition of Mycobacterium tuberculosis H37Rv DNA gyrase
[2] = system: Mycobacterium tuberculosis; test: microbe, parasite or virus in culture; details: H37Rv, 264 h
Description: Antibacterial activity against wild type Mycobacterium tuberculosis H37Rv assessed as inhibition of bacterial growth incubated for 11 days

DNA gyrase = DNA gyrase (Staphylococcus aureus, UniProt P0A0K8+P20831)
Escherichia coli = test: microbe, parasite or virus in culture; details: ATTC 25922, 192 h
[3] = system: Mycobacterium tuberculosis; test: microbe, parasite or virus in culture; details: H37Rv, 192 h
Description: Antibacterial activity against Mycobacterium tuberculosis H37Rv assessed as inhibition of bacterial growth measured after 8 days by Alamar blue reagent based broth microdilution method

[4] = system: Mycobacterium tuberculosis; test: microbe, parasite or virus in culture; details: H37Rv, 264 h; remark: listed apart in the source
Description: Antibacterial activity against Mycobacterium tuberculosis H37Rv gyrA -FDASTetON-1 hypomorph assessed as inhibition of bacterial growth incubated for 11 days

Staphylococcus aureus = test: microbe, parasite or virus in culture; details: ATTC 25923, 192 h

DNA gyrase subunit A/DNA gyrase subunit B, sequence (P9WG45 whole entry): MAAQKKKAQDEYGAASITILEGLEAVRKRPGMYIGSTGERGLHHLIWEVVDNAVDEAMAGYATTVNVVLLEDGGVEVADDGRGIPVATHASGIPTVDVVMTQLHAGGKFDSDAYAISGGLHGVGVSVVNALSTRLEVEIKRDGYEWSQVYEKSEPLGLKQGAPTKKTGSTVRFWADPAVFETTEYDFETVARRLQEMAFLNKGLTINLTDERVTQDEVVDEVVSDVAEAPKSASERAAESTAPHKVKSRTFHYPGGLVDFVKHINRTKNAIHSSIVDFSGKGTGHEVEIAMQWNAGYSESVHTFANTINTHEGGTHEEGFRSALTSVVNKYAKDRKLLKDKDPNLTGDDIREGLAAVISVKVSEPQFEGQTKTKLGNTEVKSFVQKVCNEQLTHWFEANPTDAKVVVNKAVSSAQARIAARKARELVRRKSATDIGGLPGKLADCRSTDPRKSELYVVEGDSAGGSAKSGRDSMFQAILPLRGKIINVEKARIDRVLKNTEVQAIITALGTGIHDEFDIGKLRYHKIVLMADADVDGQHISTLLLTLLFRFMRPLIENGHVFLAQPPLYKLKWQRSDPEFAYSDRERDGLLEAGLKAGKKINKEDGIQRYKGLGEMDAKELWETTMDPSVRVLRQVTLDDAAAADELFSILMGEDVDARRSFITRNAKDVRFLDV
DNA gyrase subunit A/DNA gyrase subunit B, sequence (P9WG47 whole entry): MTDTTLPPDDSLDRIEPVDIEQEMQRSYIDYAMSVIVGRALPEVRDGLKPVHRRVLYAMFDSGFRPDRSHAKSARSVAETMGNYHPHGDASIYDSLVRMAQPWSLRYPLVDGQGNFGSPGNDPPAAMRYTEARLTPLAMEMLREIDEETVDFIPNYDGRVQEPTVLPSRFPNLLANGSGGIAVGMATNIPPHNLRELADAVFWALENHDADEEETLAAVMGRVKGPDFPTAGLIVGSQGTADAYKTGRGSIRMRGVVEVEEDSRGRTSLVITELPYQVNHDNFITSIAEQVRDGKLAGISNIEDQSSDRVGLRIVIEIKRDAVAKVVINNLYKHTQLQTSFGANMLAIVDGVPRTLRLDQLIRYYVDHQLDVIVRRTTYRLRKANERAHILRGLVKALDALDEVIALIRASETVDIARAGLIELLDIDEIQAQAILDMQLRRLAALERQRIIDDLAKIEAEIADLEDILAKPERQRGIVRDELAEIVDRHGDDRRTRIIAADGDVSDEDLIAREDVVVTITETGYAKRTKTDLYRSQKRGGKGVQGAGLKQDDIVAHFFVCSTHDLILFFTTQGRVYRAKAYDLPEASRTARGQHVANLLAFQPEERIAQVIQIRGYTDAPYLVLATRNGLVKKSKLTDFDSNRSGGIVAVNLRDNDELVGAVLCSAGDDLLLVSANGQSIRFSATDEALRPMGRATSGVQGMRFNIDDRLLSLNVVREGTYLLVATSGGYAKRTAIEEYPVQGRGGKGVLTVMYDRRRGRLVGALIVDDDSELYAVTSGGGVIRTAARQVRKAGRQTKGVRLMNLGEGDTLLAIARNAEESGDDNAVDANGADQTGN
DNA gyrase, sequence (P0A0K8 whole entry): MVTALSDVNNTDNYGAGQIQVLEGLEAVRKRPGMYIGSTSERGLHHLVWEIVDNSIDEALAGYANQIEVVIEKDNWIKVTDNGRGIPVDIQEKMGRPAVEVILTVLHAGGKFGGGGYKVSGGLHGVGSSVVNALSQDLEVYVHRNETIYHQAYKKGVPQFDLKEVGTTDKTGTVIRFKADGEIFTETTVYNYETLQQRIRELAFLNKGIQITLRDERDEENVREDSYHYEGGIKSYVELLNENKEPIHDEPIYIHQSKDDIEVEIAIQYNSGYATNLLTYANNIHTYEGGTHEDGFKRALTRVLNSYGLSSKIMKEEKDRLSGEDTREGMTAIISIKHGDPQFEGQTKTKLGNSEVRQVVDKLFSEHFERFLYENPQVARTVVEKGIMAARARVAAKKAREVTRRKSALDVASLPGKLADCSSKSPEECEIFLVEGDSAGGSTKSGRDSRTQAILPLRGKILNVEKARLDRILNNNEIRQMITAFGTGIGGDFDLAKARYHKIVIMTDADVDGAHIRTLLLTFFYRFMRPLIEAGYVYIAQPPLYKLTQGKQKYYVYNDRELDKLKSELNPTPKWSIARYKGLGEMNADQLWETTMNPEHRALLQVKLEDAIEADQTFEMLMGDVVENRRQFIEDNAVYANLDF
DNA gyrase, sequence (P20831 whole entry): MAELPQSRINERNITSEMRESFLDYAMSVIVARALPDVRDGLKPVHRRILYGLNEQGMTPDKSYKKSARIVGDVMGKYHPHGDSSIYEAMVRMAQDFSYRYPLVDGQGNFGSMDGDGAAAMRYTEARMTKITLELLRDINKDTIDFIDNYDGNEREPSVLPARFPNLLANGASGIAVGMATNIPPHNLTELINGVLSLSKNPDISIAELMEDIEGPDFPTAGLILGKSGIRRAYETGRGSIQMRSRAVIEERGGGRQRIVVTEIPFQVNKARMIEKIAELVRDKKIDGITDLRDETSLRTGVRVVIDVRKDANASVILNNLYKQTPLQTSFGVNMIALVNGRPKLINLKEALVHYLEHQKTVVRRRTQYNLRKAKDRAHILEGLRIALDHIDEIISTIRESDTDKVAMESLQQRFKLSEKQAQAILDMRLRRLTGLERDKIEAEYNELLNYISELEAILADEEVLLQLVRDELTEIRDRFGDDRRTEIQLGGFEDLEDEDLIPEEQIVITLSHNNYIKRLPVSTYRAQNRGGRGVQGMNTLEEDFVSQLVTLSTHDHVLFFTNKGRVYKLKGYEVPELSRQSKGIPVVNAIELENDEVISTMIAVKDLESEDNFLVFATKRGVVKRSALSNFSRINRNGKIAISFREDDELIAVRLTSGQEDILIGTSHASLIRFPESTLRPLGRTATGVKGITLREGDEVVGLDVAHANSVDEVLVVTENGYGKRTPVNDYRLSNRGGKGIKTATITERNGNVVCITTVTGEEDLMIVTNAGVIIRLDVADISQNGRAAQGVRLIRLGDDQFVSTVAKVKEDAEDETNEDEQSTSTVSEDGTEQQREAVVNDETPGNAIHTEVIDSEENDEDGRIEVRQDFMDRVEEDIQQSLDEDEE

Row | Structure (SMILES) | MIC (Escherichia coli) [µM] | MIC [3] [µM] | MIC (Staphylococcus aureus) [µM] | also measured
1 | C[C@@H]1CN2c3c(cc4c(-n5cncn5)noc4c3F)CC3(C(=O)NC(=O)NC3=O)[C@H]2[C@H](C)O1 | 2 (≈ 0.911 µg/mL) | 0.24 (≈ 0.109 µg/mL) | – | IC50 [1]: 18 µM; MIC50 [2]: 1.8 µM (≈ 0.82 µg/mL); MIC99 [2]: 3.8 µM (≈ 1.73 µg/mL); IC50 (DNA gyrase): 1.7 µM; MIC50 [4]: 0.26 µM (≈ 0.118 µg/mL); MIC99 [4]: 0.65 µM (≈ 0.296 µg/mL)
2 | C[C@@H]1CN2c3c(cc4c(-n5cncn5)noc4c3F)CC3(C(=O)NC(=O)NC3=O)[C@H]2[C@H](C)N1C#N | 63 (≈ 30.2 µg/mL) | 0.98 (≈ 0.47 µg/mL) | 16 (≈ 7.67 µg/mL) | –
3 | C[C@@H]1CN2c3c(cc4c(OCC[C@@H]5CCC(=O)N5)noc4c3F)CC3(C(=O)NC(=O)NC3=O)[C@H]2[C@H](C)O1 | > 125 | 3.9 (≈ 2.01 µg/mL) | 31 (≈ 16 µg/mL) | –
4 | CN[C@H]1CCN(c2noc3c(F)c4c(cc23)CC2(C(=O)NC(=O)NC2=O)[C@H]2[C@H](C)O[C@H](C)CN42)C1 | 125 (≈ 60.8 µg/mL) | 63 (≈ 30.6 µg/mL) | 125 (≈ 60.8 µg/mL) | –
5 | C[C@@H]1CN2c3c(cc4c(N5CC[C@H](N)C5)noc4c3F)CC3(C(=O)NC(=O)NC3=O)[C@H]2[C@H](C)O1 | 125 (≈ 59.1 µg/mL) | 63 (≈ 29.8 µg/mL) | 125 (≈ 59.1 µg/mL) | IC50 [1]: 34 µM
6 | C[C@@H]1CN2c3c(cc4c(N5CCC[C@H](O)C5)noc4c3F)CC3(C(=O)NC(=O)NC3=O)[C@H]2[C@H](C)O1 | – | 16 (≈ 7.8 µg/mL) | 94 (≈ 45.8 µg/mL) | –
7 | C[C@@H]1CN2c3c(cc4c(N5CC[C@@H](O)C5)noc4c3F)CC3(C(=O)NC(=O)NC3=O)[C@H]2[C@H](C)N1C#N | – | – | > 125 | –
8 | C[C@@H]1CN2c3c(cc4c(N5C(=O)OC[C@@H]5C)noc4c3F)CC3(C(=O)NC(=O)NC3=O)[C@H]2[C@H](C)N1C#N | 3.9 (≈ 1.99 µg/mL) | 3.9 (≈ 1.99 µg/mL) | 1 (≈ 0.511 µg/mL) | –
9 | CO[C@H]1CCN(c2noc3c(F)c4c(cc23)CC2(C(=O)NC(=O)NC2=O)[C@H]2[C@H](C)O[C@H](C)CN42)C1 | > 125 | 31 (≈ 15.1 µg/mL) | > 125 | IC50 [1]: 77 µM
10 | C[C@@H]1CN2c3c(cc4c(N5CC[C@H](O)C5)noc4c3F)CC3(C(=O)NC(=O)NC3=O)[C@H]2[C@H](C)N1C#N | > 125 | 7.8 (≈ 3.88 µg/mL) | – | MIC50 [2]: 5.35 µM (≈ 2.66 µg/mL); MIC99 [2]: 10.3 µM (≈ 5.12 µg/mL); IC50 (DNA gyrase): 3.1 µM; MIC50 [4]: 1.75 µM (≈ 0.871 µg/mL); MIC99 [4]: 5.05 µM (≈ 2.51 µg/mL)
11 | C[C@@H]1CN2c3c(cc4c(OC[C@@H]5CCC(=O)O5)noc4c3F)CC3(C(=O)NC(=O)NC3=O)[C@H]2[C@H](C)O1 | > 125 | 2 (≈ 1 µg/mL) | 3.9 (≈ 1.96 µg/mL) | –
12 | C[C@@H]1CN2c3c(cc4c(OC[C@H]5CCC(=O)N5)noc4c3F)CC3(C(=O)NC(=O)NC3=O)[C@H]2[C@H](C)O1 | – | > 125 | – | –
13 | Cc1nnc(-c2noc3c(F)c4c(cc23)CC2(C(=O)NC(=O)NC2=O)[C@H]2[C@H](C)N(C#N)[C@H](C)CN42)o1 | > 125 | 1.5 (≈ 0.742 µg/mL) | > 125 | –
14 | Cc1nnc(-c2noc3c(F)c4c(cc23)CC2(C(=O)NC(=O)NC2=O)[C@H]2[C@H](C)[C@@H](O)[C@H](C)CN42)o1 | > 250 | 16 (≈ 7.75 µg/mL) | > 250 | –
15 | C[C@@H]1CN2c3c(cc4c(N5C(=O)OC[C@@H]5C)noc4c3F)CC3(C(=O)NC(=O)NC3=O)[C@H]2[C@H](C)N1CC#N | > 125 | > 125 | > 125 | –
16 | C[C@@H]1CN2c3c(cc4c(N5CC[C@H](CO)C5)noc4c3F)CC3(C(=O)NC(=O)NC3=O)[C@H]2[C@H](C)O1 | > 125 | 16 (≈ 7.8 µg/mL) | > 125 | IC50 [1]: 18 µM
17 | C[C@@H]1CN2c3c(cc4c(OC[C@H]5CCC(=O)O5)noc4c3F)CC3(C(=O)NC(=O)NC3=O)[C@H]2[C@H](C)O1 | > 250 | 3.9 (≈ 1.96 µg/mL) | > 250 | –
18 | C[C@@H]1CN2c3c(cc4c(N5CC[C@H](C#N)C5)noc4c3F)CC3(C(=O)NC(=O)NC3=O)[C@H]2[C@H](C)O1 | 31 (≈ 15 µg/mL) | 4 (≈ 1.93 µg/mL) | > 125 | IC50 [1]: 10 µM
19 | C[C@@H]1CN2c3c(cc4c(N5C(=O)OC[C@@H]5C)noc4c3F)CC3(C(=O)NC(=O)NC3=O)[C@H]2[C@H](C)N1 | 31 (≈ 15.1 µg/mL) | > 125 | 63 (≈ 30.6 µg/mL) | –
20 | C[C@@H]1CN2c3c(cc4c(OC[C@@H]5CCC(=O)N5C)noc4c3F)CC3(C(=O)NC(=O)NC3=O)[C@H]2[C@H](C)O1 | 63 (≈ 32.5 µg/mL) | 3.9 (≈ 2.01 µg/mL) | 63 (≈ 32.5 µg/mL) | –

Row | Structure (SMILES) | MIC (Escherichia coli) [µM] | MIC [3] [µM] | MIC (Staphylococcus aureus) [µM] | also measured
21 | C[C@@H]1CN2c3c(cc4c(N5CC[C@@](C)(O)C5)noc4c3F)CC3(C(=O)NC(=O)NC3=O)[C@H]2[C@H](C)O1 | > 250 | > 250 | > 250 | –
22 | Cc1nnc(COc2noc3c(F)c4c(cc23)CC2(C(=O)NC(=O)NC2=O)[C@H]2[C@H](C)O[C@H](C)CN42)o1 | > 125 | 63 (≈ 31.5 µg/mL) | > 125 | –
23 | C[C@@H]1CN2c3c(cc4c(OC[C@@H]5CNC(=O)C5)noc4c3F)CC3(C(=O)NC(=O)NC3=O)[C@H]2[C@H](C)O1 | > 250 | 2 (≈ 1 µg/mL) | > 125 | –
24 | Cc1nnc(-c2noc3c(F)c4c(cc23)CC2(C(=O)NC(=O)NC2=O)[C@H]2[C@H](C)O[C@H](C)CN42)o1 | 31 (≈ 14.6 µg/mL) | 0.45 (≈ 0.212 µg/mL) | – | –
25 | C[C@H]1C[C@@H](C)[C@H]2N(C1)c1c(cc3c(OC[C@@H]4CCC(=O)N4)noc3c1F)CC21C(=O)NC(=O)NC1=O | 63 (≈ 31.5 µg/mL) | 16 (≈ 7.99 µg/mL) | 7.8 (≈ 3.9 µg/mL) | –
26 | C[C@@H]1CN2c3c(cc4c(N5C[C@H](O)[C@@H](O)C5)noc4c3F)CC3(C(=O)NC(=O)NC3=O)[C@H]2[C@H](C)O1 | > 125 | 31 (≈ 15.2 µg/mL) | – | –
27 | C[C@@H]1CN2c3c(cc4c(OC[C@@H]5COC(=O)N5)noc4c3F)CC3(C(=O)NC(=O)NC3=O)[C@H]2[C@H](C)O1 | > 250 | 2 (≈ 1.01 µg/mL) | – | –
28 | CC(=O)N1[C@H](C)CN2c3c(cc4c(N5C(=O)OC[C@@H]5C)noc4c3F)CC3(C(=O)NC(=O)NC3=O)[C@H]2[C@@H]1C | > 125 | > 125 | > 125 | –
29 | C[C@@H]1CN2c3c(cc4c(N5CC[C@@H](O)C5)noc4c3F)CC3(C(=O)NC(=O)NC3=O)[C@H]2[C@H](C)O1 | – | 3.9 (≈ 1.85 µg/mL) | – | –
30 | C[C@@H]1CN2c3c(cc4c(N5CC[C@H](F)C5)noc4c3F)CC3(C(=O)NC(=O)NC3=O)[C@H]2[C@H](C)O1 | 31 (≈ 14.7 µg/mL) | 4 (≈ 1.9 µg/mL) | 2 (≈ 0.951 µg/mL) | –
31 | C[C@@H]1CN2c3c(cc4c(OC[C@H]5COC(=O)N5)noc4c3F)CC3(C(=O)NC(=O)NC3=O)[C@H]2[C@H](C)O1 | – | – | 63 (≈ 31.7 µg/mL) | –
32 | C[C@@H]1CN2c3c(cc4c(OC[C@@H]5CCC(=O)N5)noc4c3F)CC3(C(=O)NC(=O)NC3=O)[C@H]2[C@H](C)N1C#N | > 125 | 0.49 (≈ 0.257 µg/mL) | > 125 | –
33 | C[C@@H]1CN2c3c(cc4c(OC[C@@H]5CCC(=O)N5)noc4c3F)CC3(C(=O)NC(=O)NC3=O)[C@H]2[C@H](C)O1 | > 125 | 1 (≈ 0.501 µg/mL) | > 125 | IC50 [1]: 2.6 µM
34 | C[C@@H]1CN2c3c(cc4c(N5C(=O)OC[C@@H]5C)noc4c3F)CC3(C(=O)NC(=O)NC3=O)[C@H]2[C@H](C)N1O | > 125 | > 125 | > 125 | –
35 | C[C@@H]1CN2c3c(cc4c(N5CC[C@H](C(=O)O)C5)noc4c3F)CC3(C(=O)NC(=O)NC3=O)[C@H]2[C@H](C)O1 | > 125 | > 125 | > 125 | –
36 | C[C@@H]1CN2c3c(cc4c(OC[C@H]5CNC(=O)C5)noc4c3F)CC3(C(=O)NC(=O)NC3=O)[C@H]2[C@H](C)O1 | 63 (≈ 31.6 µg/mL) | – | 31 (≈ 15.5 µg/mL) | –
37 | C[C@@H]1CN2c3c(cc4c(N5C[C@@H](O)[C@@H](O)C5)noc4c3F)CC3(C(=O)NC(=O)NC3=O)[C@H]2[C@H](C)O1 | – | 16 (≈ 7.83 µg/mL) | – | –
38 | C[C@@H]1CN2c3c(cc4c(N5CCC[C@@H](O)C5)noc4c3F)CC3(C(=O)NC(=O)NC3=O)[C@H]2[C@H](C)O1 | > 125 | 10 (≈ 4.87 µg/mL) | – | –
39 | COc1c(N2C[C@@H]3CCCN[C@@H]3C2)c(F)cc2c(=O)c(C(=O)O)cn(C3CC3)c12 [MOXIFLOXACIN] | – | 0.17 (≈ 0.0682 µg/mL) | – | MIC50 [2]: 0.12 µM (≈ 0.0482 µg/mL); MIC99 [2]: 0.19 µM (≈ 0.0763 µg/mL); MIC50 [4]: 0.041 µM (≈ 0.0165 µg/mL); MIC99 [4]: 0.07 µM (≈ 0.0281 µg/mL)
40 | CO[C@H]1/C=C/O[C@@]2(C)Oc3c(C)c(O)c4c(O)c(c(/C=N/N5CCN(C)CC5)c(O)c4c3C2=O)NC(=O)/C(C)=C\C=C\[C@H](C)[C@H](O)[C@@H](C)[C@@H](O)[C@@H](C)[C@H](OC(C)=O)[C@@H]1C [RIFAMPIN] | – | – | – | MIC50 [2]: 0.24 µM (≈ 0.198 µg/mL); MIC99 [2]: 0.041 µM (≈ 0.0337 µg/mL); MIC50 [4]: 0.021 µM (≈ 0.0173 µg/mL); MIC99 [4]: 0.037 µM (≈ 0.0304 µg/mL)
